Consider eight compounds from ChEMBL document CHEMBL1147641, “Highly potent and long-acting trimeric and tetrameric inhibitors of influenza virus neuraminidase” (Bioorg Med Chem Lett, 2004).

The structures appear in SMILES notation. In brackets after ≈: the same amount, converted by molar mass.

Assay [1] deals with Influenza A virus. Briefly: Antiinfluenza activity of compound against Influenza A/Sydney/5/97 in influenza cytopathic effect (CPE) assay. It is filed as functional, organism-based.
Assay [2] deals with Influenza B virus. Briefly: Antiinfluenza activity of compound against Influenza B/Harbin/7/95 in influenza cytopathic effect (CPE) assay. It is filed as functional, organism-based.
Assay [3] relates to Mus musculus. The assay is described as follows: Reduction in virus titre taken from mouse infected with Influenza A/Singapore/1/57 at 1.0 mg/kg dose in 7 day mouse influenza prevention assay. It is filed as functional.
Assay [4] deals with Mus musculus. Briefly: Reduction in virus titre taken from mouse infected with Influenza A/Singapore/1/57 at 0.1 mg/kg dose in 7 day mouse influenza prevention assay. It is filed as functional.
Assay [5] concerns Mus musculus. The assay is described as follows: Reduction in virus titre taken from mouse infected with Influenza A/Singapore/1/57 at 0.01 mg/kg dose in 7 day mouse influenza prevention assay. The assay is classed as functional.
Assay [6] deals with Mus musculus. Briefly: Number of virus free mice from total 8 mice infected with Influenza A/Singapore/1/57 after 12.5 mg/kg of intranasal administration for 172 hr prior to viral infection. The assay is classed as functional.
Assay [7] deals with Mus musculus. The assay is described as follows: Number of virus free mice from total 10 mice infected with Influenza A/Singapore/1/57 after 12.5 mg/kg of intranasal administration for 172 hr prior to viral infection. The assay is classed as functional.
Assay [8] has as its system Mus musculus. The assay is described as follows: Reduction in virus titre taken from mouse infected with Influenza A/Singapore/1/57 at 1.6 mg/kg dose in 7 day mouse influenza prevention assay. It is filed as functional.
For assay [9], the system named is Mus musculus. The assay is described as follows: Number of virus free mice from total 10 mice infected with Influenza A/Singapore/1/57 after 12.5 mg/kg of intranasal administration for 117 hr prior to viral infection. The assay is classed as functional.
For assay [10], the system named is Mus musculus. The assay is described as follows: Reduction in virus titre taken from mouse infected with Influenza A/Singapore/1/57 at 0.4 mg/kg dose in 7 day mouse influenza prevention assay. The assay is classed as functional.
For assay [11], the system named is Mus musculus. The assay is described as follows: Number of virus free mice from total 9 mice infected with Influenza A/Singapore/1/57 after 12.5 mg/kg of intranasal administration for 145 hr prior to viral infection. The assay is classed as functional.
The test system of assay [12] is Mus musculus. The assay is described as follows: Number of virus free mice from total 9 mice infected with Influenza A/Singapore/1/57 after 12.5 mg/kg of intranasal administration for 51 hr prior to viral infection. It is filed as functional.

For `CC(=O)N[C@H]1[C@H]([C@H](OC(=O)NCCCCCCNC(=O)CC(O)(CC(=O)NCCCCCCNC(=O)O[C@@H]([C@@H]2OC(C(=O)O)=C[C@H](N=C(N)N)[C@H]2NC(C)=O)[C@H](O)CO)C(=O)NCCCCCCNC(=O)O[C@@H]([C@@H]2OC(C(=O)O)=C[C@H](NC(=N)N)[C@H]2NC(C)=O)[C@H](O)CO)[C@H](O)CO)OC(C(=O)O)=C[C@@H]1N=C(N)N`, the EC50 is 0.159 ng/mL (≈ 0.102 nM) in assay [1] and 2.48 ng/mL (≈ 1.58 nM) in [2]. Moreover, the Effectiveness was determined as 99.11% in assay [3] and 85.88% in assay [4].
The like results for `CC(=O)N[C@H]1[C@H]([C@H](OC(=O)NCCCCCCNC(=O)[C@H]2C[C@@H](C(=O)NCCCCCCNC(=O)O[C@@H]([C@@H]3OC(C(=O)O)=C[C@H](NC(=N)N)[C@H]3NC(C)=O)[C@H](O)CO)C[C@@H](C(=O)NCCCCCCNC(=O)O[C@@H]([C@@H]3OC(C(=O)O)=C[C@H](NC(=N)N)[C@H]3NC(C)=O)[C@H](O)CO)C2)[C@H](O)CO)OC(C(=O)O)=C[C@@H]1NC(=N)N` were, in that order, 0.3 ng/mL (≈ 0.189 nM), 0.438 ng/mL (≈ 0.276 nM), 98.32% and 94.38%.
In the case of `CC(=O)N[C@H]1[C@H]([C@H](OC(=O)NCCCCCCNC(=O)c2cc(C(=O)NCCCCCCNC(=O)O[C@@H]([C@@H]3OC(C(=O)O)=C[C@H](N=C(N)N)[C@H]3NC(C)=O)[C@H](O)CO)cc(C(=O)NCCCCCCNC(=O)O[C@@H]([C@@H]3OC(C(=O)O)=C[C@H](NC(=N)N)[C@H]3NC(C)=O)[C@H](O)CO)c2)[C@H](O)CO)OC(C(=O)O)=C[C@@H]1N=C(N)N`, the EC50 in assay [1] is 0.82 ng/mL (≈ 0.519 nM); in assay [2] it was 1.33 ng/mL (≈ 0.842 nM). Besides, the Effectiveness in assay [5] turned out to be 70.15%; in [4], 96.24%.
Regarding `CC(=O)N[C@H]1[C@H]([C@H](OC(=O)NCCCCCCNC(=O)CN(CCN(CC(=O)NCCCCCCNC(=O)O[C@@H]([C@@H]2OC(C(=O)O)=C[C@H](N=C(N)N)[C@H]2NC(C)=O)[C@H](O)CO)CC(=O)NCCCCCCNC(=O)O[C@@H]([C@@H]2OC(C(=O)O)=C[C@H](NC(=N)N)[C@H]2NC(C)=O)[C@H](O)CO)CC(=O)NCCCCCCNC(=O)O[C@@H]([C@@H]2OC(C(=O)O)=C[C@H](N=C(N)N)[C@H]2NC(C)=O)[C@H](O)CO)[C@H](O)CO)OC(C(=O)O)=C[C@@H]1N=C(N)N`, the EC50 in assay [1] worked out at 1.07 ng/mL (≈ 0.505 nM); in assay [2], 2.84 ng/mL (≈ 1.34 nM). Also, the Effectiveness in assay [5] is 68.38%; in assay [4], 95.53%.
On to `CC(=O)N[C@H]1[C@H]([C@H](OC(=O)NCCCCCCNC(=O)c2cc(C(=O)NCCCCCCNC(=O)O[C@@H]([C@@H]3OC(C(=O)O)=C[C@H](N=C(N)N)[C@H]3NC(C)=O)[C@H](O)CO)c(C(=O)NCCCCCCNC(=O)O[C@@H]([C@@H]3OC(C(=O)O)=C[C@H](NC(=N)N)[C@H]3NC(C)=O)[C@H](O)CO)cc2C(=O)NCCCCCCNC(=O)O[C@@H]([C@@H]2OC(C(=O)O)=C[C@H](N=C(N)N)[C@H]2NC(C)=O)[C@H](O)CO)[C@H](O)CO)OC(C(=O)O)=C[C@@H]1N=C(N)N`, for which the values for the 50% effective concentration (EC50) in assay [1] and in assay [2] were 0.53 ng/mL (≈ 0.255 nM) and 0.95 ng/mL (≈ 0.457 nM), respectively. Further, the Effectiveness is reported as 99.68% in [3] and 74.88% in assay [4].
In the case of `CC(=O)N[C@H]1[C@H]([C@H](OC(=O)NCCCCCCN)[C@H](O)CO)OC(C(=O)O)=C[C@@H]1NC(=N)N`, the EC50 in assay [1] is 438 ng/mL (≈ 923 nM); in [2] it was 213 ng/mL (≈ 449 nM).
As to `CC(=O)N[C@H]1[C@H]([C@H](OC(=O)NCCCCCCNC(=O)CC(CC(=O)NCCCCCCNC(=O)O[C@@H]([C@@H]2OC(C(=O)O)=C[C@H](N=C(N)N)[C@H]2NC(C)=O)[C@H](O)CO)C(=O)NCCCCCCNC(=O)O[C@@H]([C@@H]2OC(C(=O)O)=C[C@H](NC(=N)N)[C@H]2NC(C)=O)[C@H](O)CO)[C@H](O)CO)OC(C(=O)O)=C[C@@H]1N=C(N)N`, the figures for the EC50 in [1] and in [2] were 0.4 ng/mL (≈ 0.259 nM) and 0.81 ng/mL (≈ 0.524 nM), respectively. The Effectiveness in [3] is recorded as 98.24%; in assay [4], 68.78%.
For `CC(=O)N[C@H]1[C@H]([C@H](O)[C@H](O)CO)OC(C(=O)O)=C[C@@H]1NC(=N)N` [ZANAMIVIR], the EC50 in [1] is 32.5 ng/mL (≈ 97.8 nM); in [2], 12.2 ng/mL (≈ 36.7 nM). Further, the “No. of virus free mice” value in assay [6] was 0; in [7], 0; in assay [9], 1; in assay [11], 3; in assay [12], 3. In addition, the Effectiveness in assay [8] is given as 97.03%; in [10] it was 0%; in assay [3] it was 81.76%.
